According to US9156872B2, “2′-azido substituted nucleoside derivatives and methods of use thereof for the treatment of viral diseases” (priority 2011, dated 2015):

What follows are compounds tested on HCV replicon cells (assay: Cell-based HCV replicon assay (replicon RNA by Taqman real time PCR)). Details: Hepatitis C virus, 72 h, read-out: 1b EC50.

CCOC(=O)c1cccc(OP(=O)(N[C@@H](C)C(=O)OC)OC[C@H]2O[C@@H](n3ccc(=O)[nH]c3=O)[C@](C)(N=[N+]=[N-])[C@@H]2O)c1 (single isomer, unassigned) [Compound 213] was tested. Which EC50 did it give?
Its EC50 is 7900 nM.

How did the EC50 turn out when CCOC(=O)[C@H](C)NP(=O)(OC[C@H]1O[C@@H](n2cnc3c(OC)nc(N)nc32)[C@](C)(N=[N+]=[N-])[C@@H]1O)Oc1ccc(Cl)cc1 (single isomer, unassigned) [Compound 238] was run?
The EC50 was 1200 nM.

With CCOC(=O)[C@H](C)NP(=O)(OC[C@H]1O[C@@H](n2cnc3c(OC)nc(N)nc32)[C@](C)(N=[N+]=[N-])C1O)Oc1ccccc1 (single isomer, unassigned) [Compound 251] as the compound, how does the EC50 read?
Its EC50 is 400 nM.

How did the EC50 turn out when COc1nc(N)nc2c1ncn2[C@@H]1O[C@H](COP(=O)(N[C@@H](C)C(=O)OC(C)C)Oc2ccccc2)C(O)[C@@]1(C)N=[N+]=[N-] (single isomer, unassigned) [Compound 252] was run?
The EC50 was 1100 nM.

How did the EC50 turn out when COC(=O)[C@H](C)NP(=O)(OC[C@H]1O[C@@H](n2cnc3c(OC)nc(N)nc32)[C@](C)(N=[N+]=[N-])C1O)Oc1cccc2ccccc12 (single isomer, unassigned) [Compound 254] was run?
The EC50 was 1000 nM.

With COC(=O)[C@H](C)NP(=O)(OC[C@H]1O[C@@H](n2cnc3c(OC)nc(N)nc32)[C@](C)(N=[N+]=[N-])[C@@H]1O)Oc1ccccc1Cl (single isomer, unassigned) [Compound 256] as the compound, how does the EC50 read?
Its EC50 is 1400 nM.

Which EC50 does the source give for COC(=O)[C@H](C)NP(=O)(OC[C@H]1O[C@@H](n2cnc3c(OC)nc(N)nc32)[C@](C)(N=[N+]=[N-])[C@@H]1O)Oc1ccc(Cl)cc1 (single isomer, unassigned) [Compound 258] here?
Its EC50 is 800 nM.

For CCCCOC(=O)[C@H](C)NP(=O)(OC[C@H]1O[C@@H](n2cnc3c(OC)nc(N)nc32)[C@](C)(N=[N+]=[N-])C1O)Oc1ccccc1 (single isomer, unassigned) [Compound 262], which EC50 is on record?
The EC50 was 2400 nM.

With COc1nc(N)nc2c1ncn2[C@@H]1O[C@H](COP(=O)(N[C@@H](C)C(=O)OC(C)C)Oc2ccc(F)cc2)[C@@H](O)[C@@]1(C)N=[N+]=[N-] (single isomer, unassigned) [Compound 269] as the compound, how does the EC50 read?
Its EC50 is 700 nM.

For COc1nc(N)nc2c1ncn2[C@@H]1O[C@H](COP(=O)(N[C@@H](C)C(=O)OC2CCCCC2)Oc2ccc(Cl)cc2)[C@@H](O)[C@@]1(C)N=[N+]=[N-] (single isomer, unassigned) [Compound 272], which EC50 is on record?
The EC50 was 3700 nM.

Same assay, conditions: read-out: 1b EC50

COC(=O)[C@H](C)NP(=O)(OC[C@H]1O[C@@H](n2ccc(N)nc2=O)[C@](C)(N=[N+]=[N-])[C@@H]1O)Oc1ccc(Cl)c(Cl)c1 (single isomer, unassigned) [Compound 193] was tested. Which EC50 did it give?
The EC50 was 61000 nM.

Which EC50 does the source give for COC(=O)[C@H](C)NP(=O)(OC[C@H]1O[C@@H](n2ccc(N)nc2=O)[C@](C)(N=[N+]=[N-])[C@@H]1O)Oc1ccc(Cl)c(Cl)c1 (single isomer, unassigned) [Compound 194] here?
The EC50 was 35000 nM.

How did the EC50 turn out when COC(=O)[C@H](C)NP(=O)(OC[C@H]1O[C@@H](n2ccc(N)nc2=O)[C@](C)(N=[N+]=[N-])[C@@H]1O)Oc1ccccc1Cl (single isomer, unassigned) [Compound 201] was run?
Its EC50 is 12000 nM.

For COC(=O)[C@H](C)NP(=O)(OC[C@H]1O[C@@H](n2ccc(N)nc2=O)[C@](C)(N=[N+]=[N-])[C@@H]1O)Oc1ccccc1Cl (single isomer, unassigned) [Compound 202], which EC50 is on record?
The EC50 was 10000 nM.

CC(C)OC(=O)[C@H](C)NP(=O)(OC[C@H]1O[C@@H](n2ccc(N)nc2=O)[C@](C)(N=[N+]=[N-])[C@@H]1O)Oc1ccccc1Cl (single isomer, unassigned) [Compound 203] was tested. Which EC50 did it give?
The EC50 was 20000 nM.

For CC(C)OC(=O)[C@H](C)NP(=O)(OC[C@H]1O[C@@H](n2ccc(N)nc2=O)[C@](C)(N=[N+]=[N-])[C@@H]1O)Oc1ccccc1Cl (single isomer, unassigned) [Compound 204], which EC50 is on record?
The EC50 was 1300 nM.

CC(C)COC(=O)[C@H](C)NP(=O)(OC[C@H]1O[C@@H](n2ccc(=O)[nH]c2=O)[C@](C)(N=[N+]=[N-])[C@@H]1O)Oc1ccccc1 (single isomer, unassigned) [Compound 210] was tested. Which EC50 did it give?
Its EC50 is 3300 nM.

For CC(C)COC(=O)[C@H](C)NP(=O)(OC[C@H]1O[C@@H](n2ccc(=O)[nH]c2=O)[C@](C)(N=[N+]=[N-])[C@@H]1O)Oc1ccccc1 (single isomer, unassigned) [Compound 211], which EC50 is on record?
Its EC50 is 800 nM.

With CCOC(=O)c1cccc(OP(=O)(N[C@@H](C)C(=O)OC)OC[C@H]2O[C@@H](n3ccc(=O)[nH]c3=O)[C@](C)(N=[N+]=[N-])[C@@H]2O)c1 (single isomer, unassigned) [Compound 214] as the compound, how does the EC50 read?
The EC50 was 12000 nM.

How did the EC50 turn out when COC(=O)c1ccccc1OP(=O)(N[C@@H](C)C(=O)OC)OC[C@H]1O[C@@H](n2ccc(=O)[nH]c2=O)[C@](C)(N=[N+]=[N-])[C@@H]1O (single isomer, unassigned) [Compound 215] was run?
The EC50 was 3100 nM.

How did the EC50 turn out when COC(=O)c1ccccc1OP(=O)(N[C@@H](C)C(=O)OC)OC[C@H]1O[C@@H](n2ccc(=O)[nH]c2=O)[C@](C)(N=[N+]=[N-])[C@@H]1O (single isomer, unassigned) [Compound 216] was run?
Its EC50 is 1300 nM.

For COC(=O)[C@H](C)NP(=O)(OC[C@H]1O[C@@H](n2ccc(=O)[nH]c2=O)[C@](C)(N=[N+]=[N-])[C@@H]1O)Oc1cccc2ccccc12 (single isomer, unassigned) [Compound 217], which EC50 is on record?
The EC50 was 2100 nM.

With COC(=O)[C@H](C)NP(=O)(OC[C@H]1O[C@@H](n2ccc(=O)[nH]c2=O)[C@](C)(N=[N+]=[N-])[C@@H]1O)Oc1cccc2ccccc12 (single isomer, unassigned) [Compound 218] as the compound, how does the EC50 read?
Its EC50 is 4600 nM.

For CCOC(=O)c1ccccc1OP(=O)(N[C@@H](C)C(=O)OC)OC[C@H]1O[C@@H](n2ccc(=O)[nH]c2=O)[C@](C)(N=[N+]=[N-])[C@@H]1O (single isomer, unassigned) [Compound 225], which EC50 is on record?
Its EC50 is 2800 nM.

CCOC(=O)c1ccccc1OP(=O)(N[C@@H](C)C(=O)OC)OC[C@H]1O[C@@H](n2ccc(=O)[nH]c2=O)[C@](C)(N=[N+]=[N-])[C@@H]1O (single isomer, unassigned) [Compound 226] was tested. Which EC50 did it give?
Its EC50 is 26000 nM.

With COC(=O)c1ccccc1OP(=O)(N[C@@H](C)C(=O)OC)OC[C@H]1O[C@@H](n2ccc(=O)[nH]c2=O)[C@](C)(N=[N+]=[N-])[C@@H]1O (single isomer, unassigned) [Compound 227] as the compound, how does the EC50 read?
The EC50 was 3100 nM.

How did the EC50 turn out when COC(=O)c1ccccc1OP(=O)(N[C@@H](C)C(=O)OC)OC[C@H]1O[C@@H](n2ccc(=O)[nH]c2=O)[C@](C)(N=[N+]=[N-])[C@@H]1O (single isomer, unassigned) [Compound 228] was run?
Its EC50 is 1300 nM.

C[C@H](NP(=O)(OC[C@H]1O[C@@H](n2ccc(=O)[nH]c2=O)[C@](C)(N=[N+]=[N-])[C@@H]1O)Oc1ccc(F)cc1)C(=O)OC1CCCCC1 (single isomer, unassigned) [Compound 232] was tested. Which EC50 did it give?
The EC50 was > 100000 nM.

C[C@H](NP(=O)(OC[C@H]1O[C@@H](n2ccc(=O)[nH]c2=O)[C@](C)(N=[N+]=[N-])[C@@H]1O)Oc1ccc(F)cc1)C(=O)OC1CCCCC1 (single isomer, unassigned) [Compound 233] was tested. Which EC50 did it give?
The EC50 was 2100 nM.

How did the EC50 turn out when COc1nc(N)nc2c1ncn2[C@@H]1O[C@H](COP(=O)(N[C@@H](C)C(=O)OC(C)C)Oc2ccccc2)C(O)[C@@]1(C)N=[N+]=[N-] (single isomer, unassigned) [Compound 253] was run?
Its EC50 is 600 nM.

Which EC50 does the source give for COC(=O)[C@H](C)NP(=O)(OC[C@H]1O[C@@H](n2cnc3c(OC)nc(N)nc32)[C@](C)(N=[N+]=[N-])C1O)Oc1cccc2ccccc12 (single isomer, unassigned) [Compound 255] here?
The EC50 was 1200 nM.

COC(=O)[C@H](C)NP(=O)(OC[C@H]1O[C@@H](n2cnc3c(OC)nc(N)nc32)[C@](C)(N=[N+]=[N-])[C@@H]1O)Oc1ccccc1Cl (single isomer, unassigned) [Compound 257] was tested. Which EC50 did it give?
The EC50 was 700 nM.

COC(=O)[C@H](C)NP(=O)(OC[C@H]1O[C@@H](n2cnc3c(OC)nc(N)nc32)[C@](C)(N=[N+]=[N-])[C@@H]1O)Oc1ccc(Cl)cc1 (single isomer, unassigned) [Compound 259] was tested. Which EC50 did it give?
The EC50 was 600 nM.

COC(=O)[C@H](C)NP(=O)(OC[C@H]1O[C@@H](n2cnc3c(OC)nc(N)nc32)[C@](C)(N=[N+]=[N-])C1O)Oc1ccccc1 (single isomer, unassigned) [Compound 260] was tested. Which EC50 did it give?
Its EC50 is 3600 nM.

With COC(=O)[C@H](C)NP(=O)(OC[C@H]1O[C@@H](n2cnc3c(OC)nc(N)nc32)[C@](C)(N=[N+]=[N-])C1O)Oc1ccccc1 (single isomer, unassigned) [Compound 261] as the compound, how does the EC50 read?
Its EC50 is 900 nM.

For CCCCOC(=O)[C@H](C)NP(=O)(OC[C@H]1O[C@@H](n2cnc3c(OC)nc(N)nc32)[C@](C)(N=[N+]=[N-])C1O)Oc1ccccc1 (single isomer, unassigned) [Compound 263], which EC50 is on record?
The EC50 was 1500 nM.

For COc1nc(N)nc2c1ncn2[C@@H]1O[C@H](COP(=O)(N[C@@H](C)C(=O)OC2CCCCC2)Oc2ccc(F)cc2)[C@@H](O)[C@@]1(C)N=[N+]=[N-] (single isomer, unassigned) [Compound 264], which EC50 is on record?
The EC50 was 200 nM.

How did the EC50 turn out when COc1nc(N)nc2c1ncn2[C@@H]1O[C@H](COP(=O)(N[C@@H](C)C(=O)OC2CCCCC2)Oc2ccc(F)cc2)[C@@H](O)[C@@]1(C)N=[N+]=[N-] (single isomer, unassigned) [Compound 265] was run?
The EC50 was 2500 nM.

How did the EC50 turn out when COC(=O)[C@H](C)NP(=O)(OC[C@H]1O[C@@H](n2cnc3c(OC)nc(N)nc32)[C@](C)(N=[N+]=[N-])[C@@H]1O)Oc1ccc(F)cc1 (single isomer, unassigned) [Compound 266] was run?
Its EC50 is 2400 nM.

Which EC50 does the source give for COC(=O)[C@H](C)NP(=O)(OC[C@H]1O[C@@H](n2cnc3c(OC)nc(N)nc32)[C@](C)(N=[N+]=[N-])[C@@H]1O)Oc1ccc(F)cc1 (single isomer, unassigned) [Compound 267] here?
The EC50 was 700 nM.

For CCOC(=O)[C@H](C)NP(=O)(OC[C@H]1O[C@@H](n2cnc3c(OC)nc(N)nc32)[C@](C)(N=[N+]=[N-])[C@@H]1O)Oc1ccc(F)cc1 (single isomer, unassigned) [Compound 270], which EC50 is on record?
The EC50 was 1800 nM.

For CCOC(=O)[C@H](C)NP(=O)(OC[C@H]1O[C@@H](n2cnc3c(OC)nc(N)nc32)[C@](C)(N=[N+]=[N-])[C@@H]1O)Oc1ccc(F)cc1 (single isomer, unassigned) [Compound 271], which EC50 is on record?
The EC50 was 4400 nM.

How did the EC50 turn out when COc1nc(N)nc2c1ncn2[C@@H]1O[C@H](COP(=O)(N[C@@H](C)C(=O)OC2CCCCC2)Oc2ccc(Cl)cc2)[C@@H](O)[C@@]1(C)N=[N+]=[N-] (single isomer, unassigned) [Compound 273] was run?
The EC50 was 2800 nM.
